Literature values as cited in patent US12691120B2, “Liquid oral formulations for PDE V inhibitors” (LIQMEDS WORLDWIDE LIMITED, priority 2017, dated 2026).
Structures can show the parent of a compound that is named as a salt. Where two headings read alike, the source gives them in different places.

Columns and labels:
[1] = tablets or oral suspension
[2] = measured using rats
[3] = oral administration
[4] = EMEA CHMP Assessment Report for Vizarsin
[5] = Jordanian Pharmaceutical Manufacturing Co.

| absolute bioavailability [1] | solubility in acetone [4] | solubility in chloroform [4] | solubility in dimethylsulfoxide (DMSO) [4] | solubility in ethanol [4] | solubility in methanol [4] | solubility in ethanol [5] | times less soluble in ethanol than in water [5] | bioavailability [2] [%] | average time required to reach the maximum blood concentration (Cmax) [3] [h] | water solubility | Compound |
| --- | --- | --- | --- | --- | --- | --- | --- | --- | --- | --- | --- |
| about 41% | insoluble | insoluble | soluble | insoluble | soluble | ~ 1 mg/ml | about 3.5 times | – | – | – | CCCc1nn(C)c2c(=O)[nH]c(-c3cc(S(=O)(=O)N4CCN(C)CC4)ccc3OCC)nc12 [Sildenafil citrate] |
| – | – | – | – | – | – | – | – | 20.5 | 2 | about 2 μg/mL | CN1CC(=O)N2[C@H](c3ccc4c(c3)OCO4)c3[nH]c4ccccc4c3C[C@@H]2C1=O [Tadalafil] |
